Laboratory results as given in patent US20080242878A1, “Semi-Synthetic Taxane Derivatives With Antitumor Activity” (priority 2005, published 2008).

How the values were obtained:
MCF7/R = assay: Cytotoxicity, SRB test, 72 h exposure, MCF7/R (resistant cells); settings: for IC50: Homo sapiens, MCF7R, 72 h, read-out: Cytotoxicity (IC50 (nM) 72 h exposure of cells to compound ± SE (SRB test) MCF7/R); for RI (cross-resistance index): IC50 MCF7/R versus IC50 MCF7
MCF7 = assay: Cytotoxicity, SRB test, 72 h exposure, MCF7; settings: Homo sapiens, MCF7, 72 h, read-out: Cytotoxicity (IC50 (nM) 72 h exposure of cells to compound ± SE (SRB test) MCF7)

**Q.** What does the source list for `CO/C1=C(\C)C([C@]2(OC(C)=O)CO[C@@H]2CCOCSC)[C@H](OC(=O)c2ccccc2)[C@]2(O)C[C@H](OC(=O)[C@H](O)[C@H](CC(C)C)NC(=O)OC(C)(C)C)C(C)=C(C1=O)C2(C)C` (stereo partly drawn) [Ex. 2, 13-(N-Boc-β-isobutyl-isoserinoyl)-9-O-methyl-7-O-methylthiomethyl-C7,8-seco-10-deacetylbaccatin III]?
**A.** IC50 (MCF7/R): 558 ± 28 nM; RI (cross-resistance index) (MCF7/R): 5.4; IC50 (MCF7): 103 ± 13 nM

**Q.** How did the IC50 (MCF7/R) turn out when `CO/C1=C(\C)C([C@]2(OC(C)=O)CO[C@@H]2CCO)[C@H](OC(=O)c2ccccc2)[C@]2(O)C[C@H](OC(=O)[C@H](O)[C@H](CC(C)C)NC(=O)OC(C)(C)C)C(C)=C(C1=O)C2(C)C` (stereo partly drawn) [Ex. 3, 13-(N-Boc-β-isobutyl-isoserinoyl)-9-O-methyl-C7,8-seco-10-deacetylbaccatin III] was run?
**A.** 945 ± 40 nM

**Q.** And the “RI (cross-resistance index)” value (MCF7/R)?
**A.** 25

**Q.** And the IC50 (MCF7)?
**A.** 38 ± 3.9 nM

**Q.** Which results are given for `CSCOCC[C@H]1OC[C@@]1(OC(C)=O)C1/C(C)=C(/O)C(=O)C2=C(C)[C@@H](OC(=O)[C@H](O)[C@H](CC(C)C)NC(=O)OC(C)(C)C)C[C@@](O)([C@H]1OC(=O)c1ccccc1)C2(C)C` (stereo partly drawn) [Ex. 4, 13-(N-Boc-β-isobutylisoserinoyl)-7-O-methylthiomethyl-C7,8-seco-10-deacetylbaccatin III]?
**A.** IC50 (MCF7/R): 501 ± 41 nM; RI (cross-resistance index) (MCF7/R): 19; IC50 (MCF7): 26 ± 2.1 nM

**Q.** For `CSCOCC[C@H]1OC[C@@]1(OC(C)=O)C1/C(C)=C(/OCSC)C(=O)C2=C(C)[C@@H](OC(=O)[C@H](O)[C@H](CC(C)C)NC(=O)OC(C)(C)C)C[C@@](O)([C@H]1OC(=O)c1ccccc1)C2(C)C` (stereo partly drawn) [Ex. 5, 13-(N-Boc-β-isobutylisoserinoyl)-7,9-O-bis(methylthiomethyl)-C7,8-seco-10-deacetylbaccatin III], which IC50 (MCF7/R) is on record?
**A.** 333 ± 23 nM

**Q.** And the “RI (cross-resistance index)” value (MCF7/R)?
**A.** 5.7

**Q.** What about the IC50 (MCF7) of the same compound?
**A.** 58 ± 5.9 nM

**Q.** How did the IC50 (MCF7/R) turn out when `CO/C1=C(\C)C([C@]2(OC(C)=O)CO[C@@H]2CCOC(C)=O)[C@H](OC(=O)c2ccccc2)[C@]2(O)C[C@H](OC(=O)[C@H](O)[C@H](CC(C)C)NC(=O)OC(C)(C)C)C(C)=C(C1=O)C2(C)C` (stereo partly drawn) [Ex. 6, 13-(N-Boc-β-isobutylisoserinoyl)-9-O-methyl-7-O-acetyl-C7,8-seco-10-deacetylbaccatin III] was run?
**A.** 747 ± 45 nM

**Q.** What about the “RI (cross-resistance index)” value (MCF7/R) of the same compound?
**A.** 11

**Q.** And the IC50 (MCF7)?
**A.** 66 ± 5.4 nM

**Q.** Which IC50 (MCF7/R) does the source give for `COCC[C@H]1OC[C@@]1(OC(C)=O)C1/C(C)=C(/OC)C(=O)C2=C(C)[C@@H](OC(=O)[C@H](O)[C@H](CC(C)C)NC(=O)OC(C)(C)C)C[C@@](O)([C@H]1OC(=O)c1ccccc1)C2(C)C` (stereo partly drawn) [Ex. 7, 13-(N-Boc-β-isobutylisoserinoyl)-7,9-of-O-methyl-C7,8-seco-10-deacetylbaccatin III] here?
**A.** 168 ± 9.5 nM

**Q.** And the “RI (cross-resistance index)” value (MCF7/R)?
**A.** 6.6

**Q.** What about the IC50 (MCF7) of the same compound?
**A.** 25.5 ± 2.6 nM

**Q.** How did the IC50 (MCF7/R) turn out when `CC(=O)O[C@@]1(C2/C(C)=C(/O)C(=O)C3=C(C)[C@@H](OC(=O)[C@H](O)[C@H](CC(C)C)NC(=O)OC(C)(C)C)C[C@@](O)([C@H]2OC(=O)c2ccccc2)C3(C)C)CO[C@@H]1CCO` (stereo partly drawn) [IDN 5390, reference compound] was run?
**A.** 1040 ± 93 nM

**Q.** What about the “RI (cross-resistance index)” value (MCF7/R) of the same compound?
**A.** 93

**Q.** What about the IC50 (MCF7) of the same compound?
**A.** 11.2 ± 0.81 nM
